Assay results from a compilation of properties of binary mixtures (doi:10.2298/jsc190413047v).

Assay: xn = mol fraction of the nth substance listed
Conditions: 100 kPa

CCCCCC[n+]1ccn(C)c1.O=S(=O)([N-]S(=O)(=O)C(F)(F)F)C(F)(F)F + O=C1CCCO1
electrical conductivity [S/m]
Conditions | x2 = 0 | x2 = 0.1076 | x2 = 0.2973 | x2 = 0.4956 | x2 = 0.6996 | x2 = 0.8001 | x2 = 0.8456 | x2 = 0.9001 | x2 = 0.9493
293.15 K | 0.176 | 0.21 | – | 0.47 | 0.819 | 1.07 | 1.13 | – | –
298.15 K | 0.221 | – | 0.362 | 0.556 | 0.932 | 1.19 | 1.25 | 1.23 | –
303.15 K | – | 0.319 | 0.431 | – | 1.05 | 1.31 | 1.36 | – | 0.896
308.15 K | – | – | – | 0.751 | 1.17 | 1.44 | 1.49 | – | 0.968
313.15 K | 0.398 | – | – | 0.863 | – | 1.57 | – | 1.57 | 1.04
318.15 K | 0.467 | 0.539 | – | 0.979 | 1.46 | 1.71 | – | 1.69 | –
323.15 K | – | – | – | 1.11 | 1.61 | – | – | 1.8 | 1.17

O=C1CCCO1 + CCCC[n+]1ccn(C)c1.O=S(=O)([N-]S(=O)(=O)C(F)(F)F)C(F)(F)F
Conditions | electrical conductivity [S/m] | viscosity [mPa·s]
293.15 K, x1 = 0.1005 | 0.347 | 46.39
293.15 K, x1 = 0.1984 | 0.388 | 37.16
293.15 K, x1 = 0.4001 | 0.519 | 23.42
293.15 K, x1 = 0.5021 | 0.637 | 17.37
293.15 K, x1 = 0.5979 | 0.797 | 12.26
293.15 K, x1 = 0.7021 | 1.13 | 8.54
293.15 K, x1 = 0.7999 | 1.34 | 5.53
293.15 K, x1 = 0.8995 | 1.34 | 3.49
293.15 K, x1 = 0.95 | 1.04 | –
293.15 K, x1 = 1 | 0.001 | 1.92
298.15 K, x1 = 0.1005 | 0.428 | 38.33
298.15 K, x1 = 0.1984 | 0.469 | 30.92
298.15 K, x1 = 0.2992 | 0.546 | 24.97
298.15 K, x1 = 0.4001 | 0.618 | 19.75
298.15 K, x1 = 0.5979 | 0.928 | 10.7
298.15 K, x1 = 0.7021 | 1.29 | 7.58
298.15 K, x1 = 0.7999 | 1.5 | 5.04
298.15 K, x1 = 0.8496 | 1.53 | –
298.15 K, x1 = 0.8995 | 1.48 | 3.26
298.15 K, x1 = 0.95 | 1.14 | –
298.15 K, x1 = 1 | 0.001 | 1.73
298.15 K, x2 = 0.0151 | 0.444 | –
303.15 K, x1 = 0.1005 | 0.501 | 31.8
303.15 K, x1 = 0.1984 | 0.552 | 25.69
303.15 K, x1 = 0.4001 | 0.72 | 16.68
303.15 K, x1 = 0.5021 | 0.853 | 12.76
303.15 K, x1 = 0.5979 | 1.05 | 9.32
303.15 K, x1 = 0.7021 | 1.43 | 6.67
303.15 K, x1 = 0.7999 | 1.65 | 4.55
303.15 K, x1 = 0.8496 | 1.69 | –
303.15 K, x1 = 0.8995 | 1.61 | 2.97
303.15 K, x1 = 0.95 | 1.23 | –
303.15 K, x1 = 1 | 0.001 | 1.63
303.15 K, x2 = 0.0151 | 0.477 | –
308.15 K, x1 = 0.1005 | 0.586 | 26.88
308.15 K, x1 = 0.1984 | 0.642 | 21.98
308.15 K, x1 = 0.2992 | 0.745 | 17.9
308.15 K, x1 = 0.4001 | 0.825 | 14.35
308.15 K, x1 = 0.5021 | 0.981 | 11.04
308.15 K, x1 = 0.7021 | 1.63 | 6
308.15 K, x1 = 0.8995 | 1.75 | 2.76
308.15 K, x1 = 0.95 | 1.32 | –
308.15 K, x2 = 0.0151 | 0.509 | –
313.15 K, x1 = 0.1005 | 0.68 | 22.69
313.15 K, x1 = 0.2992 | 0.854 | 15.26
313.15 K, x1 = 0.4001 | 1 | 12.32
313.15 K, x1 = 0.5021 | 1.2 | 9.62
313.15 K, x1 = 0.7021 | 1.81 | 5.41
313.15 K, x1 = 0.7999 | 1.98 | 3.78
313.15 K, x1 = 0.8496 | 2.01 | –
313.15 K, x1 = 0.8995 | 1.88 | 2.55
318.15 K, x1 = 0.1005 | 0.768 | 19.31
318.15 K, x1 = 0.1984 | 0.85 | 15.86
318.15 K, x1 = 0.2992 | 0.965 | 13.24
318.15 K, x1 = 0.4001 | 1.19 | 10.82
318.15 K, x1 = 0.5021 | 1.4 | 8.52
318.15 K, x1 = 0.5979 | 1.64 | 6.49
318.15 K, x1 = 0.7021 | 1.99 | 4.84
318.15 K, x2 = 0.0151 | 0.576 | –
323.15 K, x1 = 0.1005 | 0.898 | 16.54
323.15 K, x1 = 0.1984 | 1.03 | 13.86
323.15 K, x1 = 0.2992 | 1.24 | 11.57
323.15 K, x1 = 0.4001 | 1.46 | 9.47
323.15 K, x1 = 0.5021 | 1.68 | 7.51
323.15 K, x1 = 0.5979 | 1.91 | 5.83
323.15 K, x1 = 0.7021 | 2.21 | 4.44
323.15 K, x1 = 0.8496 | 2.34 | –
323.15 K, x1 = 0.8995 | 2.17 | 2.18
323.15 K, x1 = 0.95 | 1.62 | –
323.15 K, x2 = 0.0151 | 0.609 | –

CCCn1cc[n+](C)c1C.O=S(=O)([N-]S(=O)(=O)C(F)(F)F)C(F)(F)F + O=C1CCCO1
electrical conductivity [S/m]
Conditions | 293.15 K | 298.15 K | 303.15 K | 308.15 K | 313.15 K | 318.15 K | 323.15 K
x2 = 0 | 0.196 | – | 0.338 | 0.417 | 0.503 | 0.59 | 0.687
x2 = 0.1289 | 0.24 | 0.312 | – | 0.479 | 0.578 | 0.678 | 0.788
x2 = 0.2006 | – | 0.351 | 0.444 | – | 0.65 | 0.759 | –
x2 = 0.3027 | 0.343 | 0.428 | 0.537 | 0.646 | 0.779 | 0.907 | 1.02
x2 = 0.3969 | 0.451 | 0.539 | 0.657 | 0.789 | 0.935 | 1.09 | 1.23
x2 = 0.4952 | 0.593 | 0.708 | 0.844 | 0.995 | 1.16 | – | 1.46
x2 = 0.5969 | 0.797 | 0.927 | 1.07 | 1.21 | 1.38 | 1.54 | 1.7
x2 = 0.6992 | – | 1.13 | 1.27 | – | – | 1.74 | 1.92
x2 = 0.8002 | – | 1.31 | 1.45 | 1.59 | 1.73 | – | 2.07
x2 = 0.8508 | 1.25 | 1.38 | – | 1.63 | – | 1.91 | 2.06
x2 = 0.8999 | – | 1.32 | 1.44 | 1.55 | – | 1.81 | 1.94
x2 = 0.9495 | 0.875 | 0.954 | 1.03 | – | 1.2 | 1.29 | 1.39

CC[n+]1ccn(C)c1.O=S(=O)([N-]S(=O)(=O)C(F)(F)F)C(F)(F)F + O=C1CCCO1
electrical conductivity [S/m]
Conditions | 293.15 K | 298.15 K | 303.15 K | 308.15 K | 313.15 K | 318.15 K | 323.15 K
x2 = 0 | – | 0.915 | – | – | – | 1.51 | 1.75
x2 = 0.1009 | 0.905 | 1.04 | 1.18 | 1.32 | 1.49 | 1.67 | 1.89
x2 = 0.2073 | 1.05 | – | – | 1.48 | 1.65 | – | –
x2 = 0.3005 | – | 1.32 | – | 1.61 | – | 1.96 | 2.19
x2 = 0.3897 | 1.29 | 1.45 | 1.61 | 1.76 | 1.92 | 2.11 | 2.34
x2 = 0.5101 | – | 1.63 | – | 1.95 | 2.12 | – | 2.53
x2 = 0.6 | 1.6 | 1.76 | 1.93 | 2.09 | 2.25 | 2.45 | –
x2 = 0.7 | 1.73 | 1.9 | – | 2.23 | 2.4 | 2.59 | 2.81
x2 = 0.7994 | 1.77 | 1.94 | – | – | 2.42 | – | 2.79
x2 = 0.8498 | 1.75 | 1.9 | – | 2.19 | 2.35 | 2.51 | 2.71
x2 = 0.9005 | – | 1.72 | 1.85 | 1.98 | – | 2.25 | 2.4
x2 = 0.95 | – | 1.22 | – | 1.4 | 1.5 | – | 1.7
